# Structures can show the parent of a compound that is named as a salt. Where two headings read alike, the source gives them in different places. Starred links: 1 amine or outer side, 2 acyl side, 3 side chain; linkers in the order of their positions; H or OH if unused. Positions of bridges follow the written chain, without caps; N, C: chain ends. Non-standard residues stand in square brackets, D forms with d. Residues, ends and D or L forms follow the SMILES beside them. *: point of attachment. X12 = O=C([C@H](Cc1ccc2cc(F)ccc2c1)N[*:1])[*:2]; 2Nal(6-OH) = N[C@@H](Cc1ccc2cc(O)ccc2c1)C(=O)O; Trp(7-Me) = Cc1cccc2c(C[C@H](N)C(=O)O)c[nH]c12; d(hLys(Me3)) = C[N+](C)(C)CCCCC[C@@H](N)C(=O)O; Hexanoyl(6-NMe3+) = C[N+](C)(C)CCCCCC(=O)*; AEF = NCCOc1ccc(C[C@H](N)C(=O)O)cc1; 3Pal = N[C@@H](Cc1cccnc1)C(=O)O; Lys(Me) = CNCCCC[C@H](N)C(=O)O; Pen = CC(C)(S)[C@H](N)C(=O)O; Thp = NC1(C(=O)O)CCOCC1; Me2NCH2CH2 = CN(C)CC*; Tfa = O=C(C(F)(F)F)*; Sar = CNCC(=O)O
# Legend:
# [1] = disulfide bond, 20-membered ring
# [2] = target: T1, IL-23-stimulated phosphorylated STAT3 in peripheral blood mononuclear cells (PBMCs) (Homo sapiens, UniProt Q5VWK5); experiment: PBMC pSTAT3 Assay; type: cell-based; conditions: PBMCs from healthy donors, IL-23 5 ng/mL, 30 minutes, read-out: PBMC pSTAT3 IC50
# T1 sequence (Q5VWK5 24-629): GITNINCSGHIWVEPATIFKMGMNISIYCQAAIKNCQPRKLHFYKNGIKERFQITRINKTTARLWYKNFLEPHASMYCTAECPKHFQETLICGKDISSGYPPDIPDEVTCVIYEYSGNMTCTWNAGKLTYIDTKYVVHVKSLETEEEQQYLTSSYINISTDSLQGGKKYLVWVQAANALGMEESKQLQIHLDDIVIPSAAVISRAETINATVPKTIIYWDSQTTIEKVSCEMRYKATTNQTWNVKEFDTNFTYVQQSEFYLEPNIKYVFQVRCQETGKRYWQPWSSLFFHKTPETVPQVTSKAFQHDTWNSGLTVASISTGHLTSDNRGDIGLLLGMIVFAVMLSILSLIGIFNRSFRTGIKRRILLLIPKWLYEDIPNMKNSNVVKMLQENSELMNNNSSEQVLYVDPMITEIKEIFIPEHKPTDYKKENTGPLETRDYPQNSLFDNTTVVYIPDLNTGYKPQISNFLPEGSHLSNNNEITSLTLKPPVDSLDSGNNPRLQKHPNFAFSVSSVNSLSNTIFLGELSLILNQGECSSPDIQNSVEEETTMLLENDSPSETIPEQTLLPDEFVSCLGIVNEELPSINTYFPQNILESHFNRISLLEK
# Description: Cryopreserved peripheral blood mononuclear cells (PBMCs) from healthy donors were thawed and washed twice in ImmunoCult-XF T cell expansion medium (XF-TCEM) supplemented with CTL anti-aggregate wash. The cells were counted, resuspended at 2-6×10^5 cells per mL XF-TCEM supplemented with penicillin/streptomycin and 100 ng/mL IL-1β (BioLegend, 579404), and cultured in tissue culture flasks coated with anti-CD3 (eBioscience, 16-0037-85 or BD Pharmingen, 555329) at 37° C. in 5% CO2. On day 4 of culture, PBMCs were collected, washed twice in RPMI-1640 supplemented with 0.1% BSA (RPMI-BSA), and incubated in RPMI-BSA in upright tissue culture flasks for ˜4 hours at 37° C. in 5% CO2. Following this ‘starvation,’ a total of 6×10^4 cells in 30 μL RPMI-BSA was transferred into each well of a 384-well plate pre-spotted with peptide or DMSO. The cells were incubated for 30 minutes prior to the addition of IL-23 at a final concentration of 5 ng/mL. The cells were stimulated with cytokine for 30 minutes at 37° C. in 5% CO2, transferred onto ice for 10 minutes, and lysed. Cell lysates were stored at −80° C. until phosphorylated STAT3 was measured using the phospho-STAT panel kit (Meso Scale Discovery, K15202D).
# [3] = target: T2, IL-23R (Homo sapiens, UniProt Q5VWK5); experiment: IL23R Reporter Assay; type: cell-based; conditions: HEK293 cells containing IL-23R, IL-12Rβ1 and STAT-inducible luciferase reporter; 10 ng/mL IL-23; 5 h; read-out: IC50
# T2 construct: host or cells: HEK293
# T2 sequence (Q5VWK5 24-629): T1 sequence (Q5VWK5 24-629)
# Description: Compounds were serially diluted in 100% (v/v) DMSO) and plated using an Echo acoustic dispenser (Labcyte) into 1536-well non-treated black assay plates (Corning #9146). […] After 5 h at 37° C., 5% CO2, 95% relative humidity, cells were placed at 20° C. and treated with BioGlo reagent (Promega) according to the Manufacturer's instructions. Luminescence was measured on a Pherastar FSX (BMG LabTech).
compound,measurement,setting,value
"CC(=O)NCCCC[C@@H]1NC(=O)[C@H](Cc2c[nH]c3c(C)cccc23)NC(=O)[C@H]([C@@H](C)O)NC(=O)[C@H](CC(N)=O)NC(=O)[C@@H](NC(=O)[C@@H](CCCNC(=N)N)NC(C)=O)C(C)(C)SSC(C)(C)[C@@H](C(=O)N[C@@H](Cc2ccc(OCCN)cc2)C(=O)N[C@@H](Cc2ccc3cc(F)ccc3c2)C(=O)NC2(C(=O)N[C@@H](CCC(=O)O)C(=O)N[C@@H](CC(N)=O)C(=O)N[C@@H](Cc3cccnc3)C(=O)N(C)CC(N)=O)CCOCC2)NC1=O [SEQ ID NO: 407, MeCO-r-Pen(3)-N-T-7MeW-K(Ac)-Pen(3)-AEF-6F2Nal-THP-E-N-3Pya-Sar-CONH2] (Ac-[dR][Pen]NT[Trp(7-Me)]K(Ac)[Pen][AEF][X12][Thp]EN[3Pal][Sar]-NH2; disulfide 2-7)","ring closure, yield after HPLC","[1]; from Ac-dArg-Pen-Asn-Thr-7MeTrp-Lys(Ac)-Pen-AEF-6F2Nal-THP-Glu-Asn-3Pya-Sar-NH2, I2/MeOH, 20% MeCN/H2O, 0.85 mM",22.1%
same,IC50,[2],0.01 to 0.1 nM
same,IC50,[3],< 10 nM
"Cc1cccc2c(C[C@@H]3NC(=O)[C@H]([C@@H](C)O)NC(=O)[C@H](CC(=O)N(C)C)NC(=O)[C@@H](NC(=O)[C@@H](CCCCNC(=O)CCCCC[N+](C)(C)C)NC(=O)C(F)(F)F)C(C)(C)SSC(C)(C)[C@@H](C(=O)N[C@@H](Cc4ccc(OCCN(C)C)cc4)C(=O)N[C@@H](Cc4ccc5cc(O)ccc5c4)C(=O)NC4(C(=O)N[C@@H](CCC(=O)N(C)C)C(=O)N[C@@H](CC(N)=O)C(=O)N[C@@H](Cc5cccnc5)C(=O)N(C)CC(=O)N(C)C)CCOCC4)NC(=O)[C@H](CCC(=O)N(C)C)NC3=O)c[nH]c12 [SEQ ID NO: 405, CF3CO-k(5cpa)-Pen(3)-N(N(Me)2)-T-7MeW-Q(N(Me)2)-Pen(3)-AEF(N(Me)2)-6OH2Nal-THP-Q(N(Me)2)-N-3Pya-Sar-CON(Me)2] (Tfa-[dK](Hexanoyl(6-NMe3+))[Pen]D(NMe2)T[Trp(7-Me)]E(NMe2)[Pen]Y(Me2NCH2CH2)[2Nal(6-OH)][Thp]E(NMe2)N[3Pal][Sar]-NMe2; disulfide 2-7)","ring closure, yield after HPLC","[1]; from CF3CO-dLys(5cpa)-Pen-Asn(NMe2)-Thr-7MeTrp-Gln(NMe2)-Pen-AEF(NMe2)-6OH2Nal-THP-Gln(NMe2)-Asn-3Pya-Sar-NMe2, I2/MeOH, 20% MeCN/H2O, 0.51 mM",13.4%
same,IC50,[2],0.01 to 0.1 nM
same,IC50,[3],< 10 nM
"CC(=O)N[C@H](CCCCC[N+](C)(C)C)C(=O)N[C@@H]1C(=O)N[C@@H](CC(=O)N(C)C)C(=O)N[C@@H]([C@@H](C)O)C(=O)N[C@@H](Cc2c[nH]c3c(C)cccc23)C(=O)N[C@@H](CCCCN(C)C(C)=O)C(=O)N[C@H](C(=O)N[C@@H](Cc2ccc(OCCN)cc2)C(=O)N[C@@H](Cc2ccc3cc(O)ccc3c2)C(=O)NC2(C(=O)N[C@@H](CCC(=O)O)C(=O)N[C@@H](CC(N)=O)C(=O)N[C@@H](Cc3cccnc3)C(=O)N(C)CC(=O)N(C)C)CCOCC2)C(C)(C)SSC1(C)C [SEQ ID NO: 389, MeCO-hk(Me)3-Pen(3)-N(N(Me)2)-T-7MeW-K(NMeAc)-Pen(3)-AEF-6OH2Nal-THP-E-N-3Pya-Sar-CON(Me)2] (Ac-[d(hLys(Me3))][Pen]D(NMe2)T[Trp(7-Me)][Lys(Me)](Ac)[Pen][AEF][2Nal(6-OH)][Thp]EN[3Pal][Sar]-NMe2; disulfide 2-7)","ring closure, yield after HPLC","[1]; from Ac-dhLys(Me3)-Pen-Asn(NMe2)-Thr-7MeTrp-Lys(NMeAc)-Pen-AEF-6OH2Nal-THP-Glu-Asn-3Pya-Sar-NMe2?, I2/MeOH, 20% MeCN/H2O, 0.92 mM",11%
same,IC50,[2],< 0.01 nM
same,IC50,[3],< 10 nM
"CC(=O)NCCCC[C@@H]1NC(=O)[C@H](Cc2c[nH]c3c(C)cccc23)NC(=O)[C@H]([C@@H](C)O)NC(=O)[C@H](CC(N)=O)NC(=O)[C@@H](NC(C)=O)C(C)(C)SSC(C)(C)[C@@H](C(=O)N[C@@H](Cc2ccc(OCCN)cc2)C(=O)N[C@@H](Cc2ccc3cc(O)ccc3c2)C(=O)NC2(C(=O)N[C@@H](CCC(=O)O)C(=O)N[C@@H](CC(N)=O)C(=O)N[C@@H](Cc3cccnc3)C(=O)N(C)CC(N)=O)CCOCC2)NC1=O [SEQ ID NO: 428, MeCO-Pen(3)-N-T-7MeW-K(Ac)-Pen(3)-AEF-6OH2Nal-THP-E-N-3Pya-Sar-CONH2] (Ac-[Pen]NT[Trp(7-Me)]K(Ac)[Pen][AEF][2Nal(6-OH)][Thp]EN[3Pal][Sar]-NH2; disulfide 1-6)","ring closure, yield after HPLC","[1]; from Ac-Pen-Asn-Thr-7MeTrp-Lys(Ac)-Pen-AEF-6OH2Nal-THP-Glu-Asn-3Pya-Sar-NH2, I2/MeOH, 20% MeCN/H2O, 1.0 mM",8.61%
same,IC50,[2],< 0.01 nM
same,IC50,[3],< 10 nM
CC(=O)NCCCC[C@@H]1NC(=O)[C@H](Cc2c[nH]c3c(C)cccc23)NC(=O)[C@H]([C@@H](C)O)NC(=O)[C@H](CC(N)=O)NC(=O)[C@@H](NC(=O)[C@@H](CCCNC(=N)N)NC(C)=O)C(C)(C)SSC(C)(C)[C@@H](C(=O)N[C@@H](Cc2ccc(OCCN)cc2)C(=O)N[C@@H](Cc2ccc3cc(O)ccc3c2)C(=O)NC2(C(=O)N[C@@H](CCC(=O)O)C(=O)N[C@@H](CC(N)=O)C(=O)N[C@@H](Cc3cccnc3)C(=O)N(C)CC(=O)N[C@@H](CCCCNC(=O)COCCOCCNC(=O)COCCOCCNC(=O)CC[C@H](NC(=O)CCCCCCCCCCCCCCCCC(=O)O)C(=O)O)C(N)=O)CCOCC2)NC1=O,"ring closure, yield after HPLC","[1]; from Ac-dArg-Pen-Asn-Thr-7MeTrp-Lys(Ac)-Pen-AEF-6OH2Nal-THP-Glu-Asn-3Pya-Sar-Lys(PEG2PEG2gEC18OH)-NH2, I2/MeOH, 20% MeCN/H2O, 0.857 mM",12.1%
MeCO-k(d)-Pen(3)-N-T-7MeW-K(Ac)-Pen(3)-AEF-6OH2Nal-THP-E-N-3Pya-Sar-CONH2,"ring closure, yield after HPLC","[1]; I2/AcOH, MeCN/H2O, 2.19 mM",31%
MeCO-Pen(3)-E(2)-T-7MeW-K(Ac)-Pen(3)-AEF(2)-6OH2Nal-THP-K(Ac)-N-3Pya-Sar-CONH2,"ring closure, yield after HPLC","[1]; I2/MeOH, 20% MeCN/H2O, 0.85 mM",8.28%
CC(=O)NCCCC[C@@H]1NC(=O)[C@H](Cc2c[nH]c3c(C)cccc23)NC(=O)[C@H]([C@@H](C)O)NC(=O)[C@H](CC(N)=O)NC(=O)[C@@H](NC(C)=O)C(C)(C)SSC(C)(C)[C@@H](C(=O)N[C@@H](Cc2ccc(OCCN)cc2)C(=O)N[C@@H](Cc2ccc3cc(O)ccc3c2)C(=O)NC2(C(=O)N[C@@H](CCC(=O)O)C(=O)N[C@@H](CC(N)=O)C(=O)N[C@@H](Cc3cccnc3)C(=O)N(C)CC(=O)N[C@@H](CCCCNC(=O)COCCOCCNC(=O)COCCOCCNC(=O)CC[C@H](NC(=O)CCCCCCCCCCCCCCCCC(=O)O)C(=O)O)C(N)=O)CCOCC2)NC1=O,"ring closure, yield after HPLC","[1]; from Ac-Pen-Asn-Thr-7MeTrp-Lys(Ac)-Pen-AEF-6OH2Nal-THP-Glu-Asn-3Pya-Sar-Lys(PEG2PEG2gEC18OH)-NH2, I2/MeOH, 20% MeCN/H2O, 0.82 mM",12.9%
CC(=O)NCCCC[C@@H]1NC(=O)[C@H](Cc2c[nH]c3c(C)cccc23)NC(=O)[C@H]([C@@H](C)O)NC(=O)[C@H](CC(N)=O)NC(=O)[C@@H](NC(=O)[C@@H](CCCNC(=N)N)NC(C)=O)C(C)(C)SSC(C)(C)[C@@H](C(=O)N[C@@H](Cc2ccc(OCCN)cc2)C(=O)N[C@@H](Cc2ccc3cc(O)ccc3c2)C(=O)NC2(C(=O)N[C@@H](CCC(=O)O)C(=O)N[C@@H](CC(N)=O)C(=O)N[C@@H](Cc3cccnc3)C(=O)N(C)CC(N)=O)CCOCC2)NC1=O,"ring closure, yield after HPLC",[1]; from Ac-dArg-Pen-Asn-Thr-7MeTrp-Lys(Ac)-Pen-AEF-6OH2Nal-THP-Glu-Asn-3Pya-Sar-NH2,10.3%
